Experimental data: the NIST ThermoML archive (doi:10.1016/j.fluid.2007.04.023)

Details: Liquid, Vibrating tube method

CCCCCCCCCCCCC [tridecane]
Details | mass density [kg/m3]
313.01 K, 1023 kPa | 743.49
313.01 K, 2030 kPa | 744.27
313.01 K, 3025 kPa | 745.05
313.01 K, 4027 kPa | 745.74
313.01 K, 5014 kPa | 746.51
313.01 K, 6024 kPa | 747.18
313.01 K, 7021 kPa | 747.95
313.01 K, 8036 kPa | 748.69
313.01 K, 9019 kPa | 749.41
313.01 K, 10018 kPa | 750.14
313.01 K, 11030 kPa | 750.86
313.01 K, 12006 kPa | 751.51
313.01 K, 13017 kPa | 752.24
313.01 K, 14035 kPa | 752.95
313.01 K, 15021 kPa | 753.59
313.01 K, 16019 kPa | 754.27
313.01 K, 17019 kPa | 754.94
313.01 K, 18024 kPa | 755.61
313.01 K, 19025 kPa | 756.27
313.01 K, 20043 kPa | 756.91
313.01 K, 21011 kPa | 757.52
313.01 K, 22020 kPa | 758.16
313.01 K, 23018 kPa | 758.79
313.01 K, 24004 kPa | 759.44
313.01 K, 25036 kPa | 760.12
322.92 K, 1017 kPa | 736.15
322.92 K, 2006 kPa | 736.94
322.92 K, 3025 kPa | 737.83
322.92 K, 4021 kPa | 738.62
322.92 K, 5021 kPa | 739.42
322.92 K, 6043 kPa | 740.18
322.92 K, 7018 kPa | 740.9
322.92 K, 8022 kPa | 741.72
322.92 K, 9008 kPa | 742.44
322.92 K, 10012 kPa | 743.18
322.92 K, 11015 kPa | 743.93
322.92 K, 12006 kPa | 744.71
322.92 K, 13030 kPa | 745.38
322.92 K, 14010 kPa | 746.12
322.92 K, 15026 kPa | 746.81
322.92 K, 16024 kPa | 747.53
322.92 K, 17016 kPa | 748.22
322.92 K, 18010 kPa | 748.89
322.92 K, 19007 kPa | 749.56
322.92 K, 20023 kPa | 750.22
322.92 K, 21020 kPa | 750.92
322.92 K, 22010 kPa | 751.57
322.92 K, 23040 kPa | 752.26
322.92 K, 24006 kPa | 752.95
322.92 K, 25006 kPa | 753.6
332.78 K, 1015 kPa | 729.19
332.78 K, 2020 kPa | 730.06
332.78 K, 3022 kPa | 730.83
332.78 K, 4016 kPa | 731.63
332.78 K, 5020 kPa | 732.47
332.78 K, 6016 kPa | 733.27
332.78 K, 7006 kPa | 734.09
332.78 K, 8018 kPa | 734.9
332.78 K, 9013 kPa | 735.71
332.78 K, 10008 kPa | 736.52
332.78 K, 11016 kPa | 737.3
332.78 K, 12007 kPa | 738.05
332.78 K, 13012 kPa | 738.79
332.78 K, 14021 kPa | 739.55
332.78 K, 15011 kPa | 740.26
332.78 K, 16020 kPa | 741.03
332.78 K, 17015 kPa | 741.74
332.78 K, 18005 kPa | 742.47
332.78 K, 19017 kPa | 743.19
332.78 K, 20014 kPa | 743.89
332.78 K, 21016 kPa | 744.66
332.78 K, 22046 kPa | 745.35
332.78 K, 22994 kPa | 745.97
332.78 K, 24032 kPa | 746.67
332.78 K, 25030 kPa | 747.38
342.64 K, 1022 kPa | 722.03
342.64 K, 2014 kPa | 722.93
342.64 K, 3025 kPa | 723.84
342.64 K, 4021 kPa | 724.7
342.64 K, 5020 kPa | 725.59
342.64 K, 6020 kPa | 726.44
342.64 K, 7008 kPa | 727.27
342.64 K, 8026 kPa | 728.15
342.64 K, 9007 kPa | 728.98
342.64 K, 10010 kPa | 729.81
342.64 K, 11012 kPa | 730.63
342.64 K, 12014 kPa | 731.46
342.64 K, 13011 kPa | 732.27
342.64 K, 14008 kPa | 733.03
342.64 K, 15029 kPa | 733.84
342.64 K, 16006 kPa | 734.58
342.64 K, 17016 kPa | 735.35
342.64 K, 18019 kPa | 736.09
342.64 K, 19006 kPa | 736.85
342.64 K, 20001 kPa | 737.59
342.64 K, 21023 kPa | 738.34
342.64 K, 22008 kPa | 739.06
342.64 K, 23005 kPa | 739.79
342.64 K, 24032 kPa | 740.52
342.64 K, 25024 kPa | 741.14
352.47 K, 1013 kPa | 714.88
352.47 K, 2022 kPa | 715.88
352.47 K, 3010 kPa | 716.8
352.47 K, 4020 kPa | 717.71
352.47 K, 5019 kPa | 718.65
352.47 K, 6011 kPa | 719.55
352.47 K, 7017 kPa | 720.47
352.47 K, 8014 kPa | 721.35
352.47 K, 9022 kPa | 722.24
352.47 K, 10031 kPa | 723.11
352.47 K, 11010 kPa | 723.98
352.47 K, 12003 kPa | 724.82
352.47 K, 13024 kPa | 725.71
352.47 K, 14013 kPa | 726.54
352.47 K, 15007 kPa | 727.34
352.47 K, 16016 kPa | 728.16
352.47 K, 17007 kPa | 728.94
352.47 K, 18020 kPa | 729.77
352.47 K, 19011 kPa | 730.53
352.47 K, 20013 kPa | 731.29
352.47 K, 21032 kPa | 732.07
352.47 K, 22020 kPa | 732.84
352.47 K, 23020 kPa | 733.6
352.47 K, 24021 kPa | 734.36
352.47 K, 25024 kPa | 735.14
362.25 K, 1020 kPa | 707.72
362.25 K, 2026 kPa | 708.74
362.25 K, 3018 kPa | 709.77
362.25 K, 4006 kPa | 710.71
362.25 K, 5021 kPa | 711.73
362.25 K, 6019 kPa | 712.7
362.25 K, 7029 kPa | 713.67
362.25 K, 8017 kPa | 714.54
362.25 K, 9011 kPa | 715.51
362.25 K, 10011 kPa | 716.42
362.25 K, 11021 kPa | 717.35
362.25 K, 12018 kPa | 718.24
362.25 K, 13014 kPa | 719.11
362.25 K, 14000 kPa | 719.97
362.25 K, 15017 kPa | 720.85
362.25 K, 16026 kPa | 721.7
362.25 K, 17019 kPa | 722.52
362.25 K, 18034 kPa | 723.36
362.25 K, 19016 kPa | 724.17
362.25 K, 20004 kPa | 725
362.25 K, 21015 kPa | 725.8
362.25 K, 22022 kPa | 726.63
362.25 K, 23008 kPa | 727.42
362.25 K, 24034 kPa | 728.22
362.25 K, 25010 kPa | 729.02
